According to patent US20110092440A1, “METHOD OF REGULATING CELL GROWTH USING A PROTEASOME INHIBITOR” (THE BOARD OF TRUSTEES OF THE UNIVERSITY OF ILLINOIS, priority 2008, published 2011):
Non-standard residues stand in square brackets, D forms with d. Residues, ends and D or L forms follow the SMILES beside them. *: point of attachment. Nva = CCC[C@H](N)C(=O)O; Cbz = O=C(OCc1ccccc1)*; OtBu = CC(C)(C)O*

Tests used:
[1] = system: U266 and RPMI8226 multiple myeloma, HL-60 leukemia and U2OS osteosarcoma cells; assay: Annexin V-PE/7AAD staining, FACS analysis of apoptosis; format: cell-based, human; conditions: U266, RPMI8226, HL-60 and U2OS cells, FIG. 3
Protocol: Proteasorne inhibitor-induced apoptosis was further quantified by using Annexin V-PE/7AAD staining. U266 and RPMI8226 multiple myeloma, HL-60 leukemia and U2OS osteosarcoma cells were cultured in the presence of proteasome inhibitors MG115, MG132 and VELCADE®. Following proteasome inhibitor treatment (or DMSO in the control), cells were stained with Annexin V-PE/7AAD (BD-Pharmingen, Franklin Lakes, N.J.) and then analyzed by Fluorescence-activated Cell Sorting (FACS). […] The concentrations of proteasome inhibitors used in the experiments shown in FIG. 3 were the same as those in FIG. 2. The percentages of apoptotic cells were shown in the parentheses in FIG. 3. The induction of apoptosis correlated with the suppression of FoxM1 (see FIG. 3 and FIG. 2B).

FoxM1 protein = assay: Immunoblot analysis of FoxM1 protein levels in tumor cells; format: cell-based, human; conditions: U266, RPMI8226, HL-60 and U2OS cells, 24 hours, FIG. 2B
Protocol: The effects of proteasome inhibitors on FoxM1 protein expression were also examined. U266 and RPMI8226, both multiple myeloma cells, HL-60 leukemia cells and human U2OS osteosarcoma cells were treated with proteasome inhibitors MG115, MG132 and VELCADE® for 24 hours. Cell lysates were harvested and the FoxM1 protein levels were analyzed by immunoblot analysis. […] See also U.S. Patent Application Publication No. 2008/0152618.

[2] = system: FoxM1 transcriptional activity; assay: FoxM1-dependent luciferase assay in U2OS-C3-Luc cells; format: cell-based, human; conditions: 1 μg/ml doxycycline, 24 hours, FIG. 2A
Protocol: The effects of proteasome inhibitors on FoxM1 transcriptional activity were tested by examining FoxM1-dependent luciferase activity in a luciferase assay. It was previously reported that thiazole antibiotics inhibited FoxM1-dependent transcriptional activity by measuring the reduction of luciferase activity in a U2OS-derived cell line stably expressing doxycycline-inducible FoxM1 and FoxM1-dependent luciferase (the U2OS-C3-Luc cell line). See U.S. Patent Application Publication No. 2008/0152618; Radhakrishnan et al. 2006; and Bhat et al., 2009. The same cell line was used in this experiment. U2OS-C3-Luc cells were treated with a combination of 1 μg/ml doxycycline and proteasome inhibitors at indicated concentrations for 24 hours, and the luciferase activity was measured. The luciferase activity was determined by using either the Luciferase Assay System (Promega, Madison, Wis.) or the Dual-Luciferase reporter assay system (Promega) according to the manufacturer's instructions.
The results shown in FIG. 2A (1) were normalized by the amount of proteins in the sample; and the results shown in FIG. 2A (2) were normalized using the Dual-luciferase reporter assay system (Promega).

20S proteasome = target: T1, 20S proteasome (Homo sapiens, UniProt P28074); assay: 20S Proteasome Activity Assay Kit (LLVY-AMC cleavage); format: biochemical; conditions: 25 μM, 15 minutes pre-incubation, 1 hour at 37° C., FIG. 1C
T1 construct: Millipore
Protocol: The effects of Siomycin A and thiostrepton on the 20S proteasome were compared with proteasome inhibitors MG132 and lactacystin using the Proteasome Activity Assay Kit following the manufacturer's instructions (Millipore). […] Proteasome samples were prepared according to the manufacturer's instructions. […] Samples were incubated for 1 hour at 37° C. and the fluorescence derived from the cleaved AMC was detected and quantified using a 380/460 nm filter in a fluorometer (Spectra Max GeminiXS, Molecular Devices, Sunnyvale, Calif.).

[3] = system: FoxM1 transcriptional activity; conditions: previously reported (US 2008/0152618; Radhakrishnan et al., 2006); cited from earlier work
HPAC cells = assay: Apoptosis induction by Siomycin A alone, HPAC; format: cell-based, human; conditions: data not shown
[4] = system: Hdm2, p53, Mcl-1 and p21 protein levels in U2OS cells; assay: Immunoblot analysis of Hdm2, p53, Mcl-1 and p21 protein levels in U2OS cells; format: cell-based, human; conditions: FIG. 1A
Source text: The effects of Siomycin A on the protein levels of these genes in the cells were compared with those of a proteasome inhibitor MG132.

Mia Paca cells = assay: Apoptosis induction by Siomycin A alone, Mia Paca; format: cell-based, human; conditions: data not shown
MDAMB231 cells = assay: Apoptosis induction by Siomycin A alone, MDAMB231; format: cell-based, human; conditions: data not shown
BxPC3 cells = assay: Apoptosis induction by Siomycin A alone, BxPC3; format: cell-based, human; conditions: data not shown
[5] = system: NF-κB transcriptional activity; assay: TNF-α-induced NF-κB-dependent luciferase assay in 293T-NF-κB-Luc cells; format: cell-based; conditions: 10 ng/mL TNF-α 24 hours, then compound 10 hours, FIG. 1B
Protocol: Proteasome inhibitors were known to inhibit the activity of NF-κB via the stabilization of its negative regulator IκB-α (Nakanishi et al., 2005, Nat Rev Cancer 5:297-309; Nencioni et al., 2007). The effects of Siomycin A and thiostrepton on NF-κB-dependent transcriptional activity were tested. 293T cells stably transfected with an NF-κB-Luc reporter construct (293T-NF-κB-Luc) were induced with 10 ng/mL TNF-αfor 24 hours. The next day, the cells were treated with Siomycin A or thiostrepton for an additional 10 hours, and followed by luciferase assay. The luciferase activity was determined by using the Luciferase Assay System (Promega, Madison, Wis.) according to the manufacturer's instructions. The data were normalized based on the amount of proteins in the samples.

U2OS-C3 cells = assay: Active caspase 3 immunoblot in U2OS-C3 cells with doxycycline-induced FoxM1 over-expression; format: cell-based, human; conditions: compound 24 hours, FIG. 4
Protocol: Over-expression of FoxM1 was often observed in a variety of tumors. See Pilarsky et al., 2004, Neoplasia 6(6):744-750; Chan et al., 2008, J Pathol 215(3):245-252. A U2OS-derived cell line stably expressing doxycycline-inducible FoxM1-GFP fusion protein (U2OS-C3) was used to examine the role of FoxM1 in apoptosis induced by proteasome inhibitors. Exogenous FoxM1 expression was induced by doxycycline and the following day the cells were treated with different concentrations of VELCADE® for 24 hours.

[6] = system: Prostate cancer DU145 and PC3 cells; format: cell-based; conditions: data not shown
[7] = toxicity studies, Aghajanian et al., 2002; cited from earlier work

With CCC[C@@H](C=O)NC(=O)[C@H](CC(C)C)NC(=O)[C@H](CC(C)C)NC(=O)OCc1ccccc1 [MG115, Z-L-leucyl-L-leucyl-L-norvalinal] (Cbz-Leu-Leu-[Nva]-aldehyde) the “induction of apoptosis (Annexin V-PE/7AAD)” value (from here on “induction of apoptosis”) [1] was “induced apoptosis in the cells”, the “levels of FoxM1 protein” value (FoxM1 protein) was “the levels of FoxM1 protein decreased” and the “FoxM1 transcriptional activity (luciferase)” value [2] was “inhibited FoxM1 transcriptional activity”.

In the case of CC(C)C[C@@H](C=O)NC(=O)[C@H](CC(C)C)NC(=O)[C@H](CC(C)C)NC(=O)OCc1ccccc1 [MG132, Z-L-leucyl-L-leucyl-L-leucinal] (Cbz-Leu-Leu-Leu-aldehyde), the “induction of apoptosis” value [1] is reported as “induced apoptosis in the cells”, the “proteolytic activity of the 20S proteasome (free AMC)” value (shortened to “proteolytic activity … (free AMC)”) (20S proteasome) is reported as “the decrease was not as prominent as that by MG132 or lactacystin” and the “levels of FoxM1 protein” value (FoxM1 protein) is reported as “the levels of FoxM1 protein decreased”. The “FoxM1 transcriptional activity (luciferase)” value [2] was “inhibited FoxM1 transcriptional activity”.

For CC[C@H](C)[C@H](NC(=O)OCc1ccccc1)C(=O)N[C@@H](CCC(=O)OC(C)(C)C)C(=O)N[C@@H](C)C(=O)N[C@H](C=O)CC(C)C [PSI, N-benzyloxycarbony-Ile-Glu-(O-t-butyl)-Ala-leucinal] (Cbz-IE(OtBu)AL-aldehyde), the “FoxM1 transcriptional activity (luciferase)” value [2] was “inhibited FoxM1 transcriptional activity”.

For C=C(NC(=O)C(=C)NC(=O)c1csc(C2=N[C@@H]3c4csc(n4)[C@H]4NC(=O)c5csc(n5)[C@H]([C@](C)(O)[C@@H](C)O)NC(=O)[C@H]5CSC(=N5)/C(=C/C)NC(=O)[C@H]([C@@H](C)O)NC(=O)c5csc(n5)[C@]3(CC2)NC(=O)[C@H](C)NC(=O)C(=C)NC(=O)C(=C)NC(=O)[C@H](C(C)C)N[C@@H]2C=Cc3c([C@H](C)O)cc(nc3[C@H]2O)C(=O)O[C@@H]4C)n1)C(N)=O [Siomycin A], the “FoxM1 transcriptional activity and FoxM1 protein expression, reported previously” value [3] is given as “inhibited FoxM1 transcriptional activity as well as FoxM1 protein expression in cells”, the “concentration required to induce apoptosis when used alone” value (from here on “concentration required … when used alone”) (HPAC cells) is given as 10 to 15 µM and the “cellular protein levels of Hdm2, p53, Mcl-1 and p21” value [4] is given as “increased the cellular protein levels of Hdm2, p53, Mcl-1 and p21”. The “concentration required … when used alone” value (Mia Paca cells) was 5 µM, the “proteolytic activity … (free AMC)” value (20S proteasome) was “decreased proteolytic activity of the 20S proteasome” and the “concentration required … when used alone” value (MDAMB231 cells) was 5 µM. The “concentration required … when used alone” value (BxPC3 cells) was 5 µM and the “TNF-α-induced NF-κB transcriptional activity” value [5] was “suppressed TNF-α-induced NF-κB transcriptional activity”.

With CC(C)C[C@H](NC(=O)[C@H](Cc1ccccc1)NC(=O)c1cnccn1)B(O)O [VELCADE®, pyrazylcarbony-phenylalanyl-leucyl-boronate] the “induction of apoptosis” value [1] was “induced apoptosis in the cells”, the “active caspase 3 expression in cells over-expressing FoxM1” value (U2OS-C3 cells) was “VELCADE®-induced active caspase 3 expression was reduced in cells that over-expressed FoxM1” and the “minimal concentration required for induction of caspase 3 expression, compound alone” value [6] was 50 nM. The “levels of FoxM1 protein” value (FoxM1 protein) was “the levels of FoxM1 protein decreased”, the therapeutic index [7] was “very narrow therapeutic index” and the “FoxM1 transcriptional activity (luciferase)” value [2] was “inhibited FoxM1 transcriptional activity”.

With COc1cccc2c1C(=O)c1c(O)c3c(c(O)c1C2=O)C[C@@](O)(C(=O)CO)C[C@@H]3O[C@H]1C[C@H](N)[C@H](O)[C@H](C)O1 [doxorubicin] the “active caspase 3 expression in cells over-expressing FoxM1” value (U2OS-C3 cells) was “over-expression of FoxM1 did not protect against doxorubicin-induced caspase 3 expression”.

For CC(=O)N[C@@H](CSC(=O)[C@]1([C@@H](O)C(C)C)NC(=O)[C@H](C)[C@@H]1O)C(=O)O [lactacystin], the “proteolytic activity … (free AMC)” value (20S proteasome) was “the decrease was not as prominent as that by MG132 or lactacystin”.

In the case of C=C(NC(=O)C(=C)NC(=O)c1csc(C2=N[C@@H]3c4csc(n4)[C@H]4NC(=O)c5csc(n5)[C@H]([C@](C)(O)[C@@H](C)O)NC(=O)[C@H]5CSC(=N5)/C(=C/C)NC(=O)[C@H]([C@@H](C)O)NC(=O)c5csc(n5)[C@]3(CC2)NC(=O)[C@H](C)NC(=O)C(=C)NC(=O)[C@H](C)NC(=O)[C@H]([C@@H](C)CC)N[C@@H]2C=Cc3c([C@H](C)O)cc(nc3[C@H]2O)C(=O)O[C@@H]4C)n1)C(N)=O [thiostrepton], the “FoxM1 transcriptional activity and FoxM1 protein expression, reported previously” value [3] is given as “inhibited FoxM1 transcriptional activity as well as FoxM1 protein expression in cells”, the “proteolytic activity … (free AMC)” value (20S proteasome) is given as “decreased proteolytic activity of the 20S proteasome” and the “minimal concentration required for induction of caspase 3 expression, compound alone” value [6] is given as 3000 nM. The “TNF-α-induced NF-κB transcriptional activity” value [5] was “suppressed TNF-α-induced NF-κB transcriptional activity”.
